The record followed here is patent publication US7915292B2, “Antibacterial quinoline derivatives” (Janssen Pharmaceutica NV, priority 2005, dated 2011).

The subject of assay [1] is M. Smegmatis ATCC607. Nature of the assay: In-vitro anti-bacterial activity against strain M. smegmatis ATCC607 (Alamar Blue growth inhibition). The format is cell-based. The conditions noted are these: 48 hours incubation; for IC50: Mycolicibacterium smegmatis, read-out: M. smegmatis pIC50 (converted). The procedure, abridged: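 Five-fold serial compound dilutions were inoculated with about 250 CFU/well in Mueller-Hinton broth and incubated 48 h at 37° C under 5% CO2. Growth was read by Alamar Blue fluorescence (ex 530/em 590 nm) after a further 2 h. Percent growth inhibition was expressed as pIC50.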

The subject of assay [2] is EFA 14506. Nature of the assay: Microtitre plate assay, IC90 determination, EFA 14506. The format is cell-based, E. faecalis. The following applies: 90% inhibitory concentration for bacterial growth, strain EFA 14506, 24 hours at 37° C. How it is done:
(§1) Stocks (0.5 ml/tube) were stored at -70° C. until use. Bacteria titrations were performed in microtiter plates to detect the TCID50, in which the TCID50 represents the dilution that gives rise to bacterial growth in 50% of inoculated cultures. In general, an inoculum level of approximately 100 TCID50 was used for susceptibility testing. […] Serial five-fold dilutions (45 μl in 180 μl) were made directly in the microtiter plates from column 2 to reach column 11. Untreated control samples with (column 1) and without (column 12) inoculum were included in each microtiter plate. Depending on the bacteria type, approximately 10 to 60 CFU per well of bacteria inoculum (100 TCID50), in a volume of 100 μl in 2.8× Mueller-Hinton broth medium, was added to the rows […]. The same volume of broth medium without inoculum was added to column 12 in row A to H. The cultures were incubated at 37° C. for 24 hours under a normal atmosphere (incubator with open air valve and continuous ventilation). At the end of incubation, one day after inoculation, the bacterial growth was quantitated fluorometrically. Therefore resazurin (0.6 mg/ml) was added in a volume of 20 μl to all wells 3 hours after inoculation, and the plates were re-incubated overnight. A change in colour from blue to pink indicated the growth of bacteria. The fluorescence was read in a computer-controlled fluorometer (Cytofluor Biosearch) at an excitation wavelength of 530 nm and an emission wavelength of 590 nm. The % growth inhibition achieved by the compounds was calculated according to standard methods. The IC90 (expressed in μg/ml) was defined as the 90% inhibitory concentration for bacterial growth.

Assay [3] deals with ECO 25922. The assay is described as follows: Microtitre plate assay, IC90 determination, ECO 25922. The assay is classed as cell-based, E. coli. The following applies: 90% inhibitory concentration for bacterial growth, strain ECO 25922, 24 hours at 37° C.; for IC90: Escherichia coli, read-out: IC90 (μg/ml) ECO 25922. As for the experimental part:
as §1

The subject of assay [4] is EFA 29212. The assay is described as follows: Microtitre plate assay, IC90 determination, EFA 29212. The format is cell-based, E. faecalis. The following applies: 90% inhibitory concentration for bacterial growth, strain EFA 29212, 24 hours at 37° C.; for IC90: Enterococcus faecalis, read-out: IC90 (μg/ml) EFA 29212. How it is done: as §1
In assay [5] the test system is SMU 33402. The assay is described as follows: Microtitre plate assay, IC90 determination, SMU 33402. The assay is classed as cell-based, S. mutans. The following applies: 90% inhibitory concentration for bacterial growth, strain SMU 33402, 24 hours at 37° C.; for IC90: Streptococcus mutans, read-out: IC90 (μg/ml) SMU 33402. As for the experimental part:
as §1

Assay [6] relates to SPN 6305. Nature of the assay: Microtitre plate assay, IC90 determination, SPN 6305. The assay is classed as cell-based, S. pneumoniae. The conditions noted are these: 90% inhibitory concentration for bacterial growth, strain SPN 6305, 24 hours at 37° C. How it is done:
as §1

The subject of assay [7] is Mycobacterium tuberculosis (strain H37RV). Nature of the assay: In-vitro method for testing compounds against M. tuberculosis (resazurin growth inhibition). The assay is classed as cell-based. The following applies: 7 days incubation.
The test system of assay [8] is SPY 8668. The assay is described as follows: Microtitre plate assay, IC90 determination, SPY 8668. The format is cell-based, S. pyogens. The following applies: 90% inhibitory concentration for bacterial growth, strain SPY 8668, 24 hours at 37° C. How it is done: as §1
For assay [9], the system named is STA 25923. The assay is described as follows: Microtitre plate assay, IC90 determination, STA 25923. The format is cell-based, S. aureus. The conditions noted are these: 90% inhibitory concentration for bacterial growth, strain STA 25923, 24 hours at 37° C.; for IC90: Staphylococcus aureus, read-out: IC90 (μg/ml) STA 25923. How it is done:
as §1

Assay [10] concerns LMO 49594. The assay is described as follows: Microtitre plate assay, IC90 determination, LMO 49594. The conditions noted are these: 90% inhibitory concentration for bacterial growth, strain LMO 49594, 24 hours at 37° C.; for IC90: Listeria monocytogenes, read-out: IC90 (μg/ml) LMO 49594. The assay is classed as cell-based, Listeria monocytogenes. How it is done:
as §1

Assay [11] deals with PAE 27853. Nature of the assay: Microtitre plate assay, IC90 determination, PAE 27853. The format is cell-based, Pseudomonas aeruginosa. The conditions noted are these: 90% inhibitory concentration for bacterial growth, strain PAE 27853, 24 hours at 37° C. As for the experimental part: as §1
Assay [12] deals with STA 29213. The assay is described as follows: Microtitre plate assay, IC90 determination, STA 29213. The format is cell-based, S. aureus. The following applies: 90% inhibitory concentration for bacterial growth, strain STA 29213, 24 hours at 37° C.; for IC90: Staphylococcus aureus, read-out: IC90 (μg/ml) STA 29213. As for the experimental part:
as §1

Assay [13] concerns BSU 43639. The assay is described as follows: Microtitre plate assay, IC90 determination, BSU 43639. The format is cell-based, Bacillus subtilis. The following applies: 90% inhibitory concentration for bacterial growth, strain BSU 43639, 24 hours at 37° C. How it is done:
as §1

Assay [14] relates to STA RMETH. Nature of the assay: Microtitre plate assay, IC90 determination, STA RMETH. The format is cell-based, S. aureus. The conditions noted are these: Staphylococcus aureus; 90% inhibitory concentration for bacterial growth; strain STA RMETH; 24 hours at 37° C.; read-out: IC90 (μg/ml) STA RMETH. How it is done: as §1
Assay [15] has as its system STA 43300. Nature of the assay: Microtitre plate assay, IC90 determination, STA 43300. The format is cell-based, S. aureus. The conditions noted are these: Staphylococcus aureus; 90% inhibitory concentration for bacterial growth; strain STA 43300; 24 hours at 37° C.; read-out: IC90 (μg/ml) STA 43300. As for the experimental part:
as §1, with “Therefore resazurin (0.6 mg/ml) was added in a volume of 20 μl to all wells 3 hours after inoculation, and the plates were re-incubated overnight. A change in colour from blue to pink indicated the growth of bacteria.” left out, “The IC90 (expressed in μg/ml) was defined as the 90% inhibitory concentration for bacterial growth.” left out

≈ marks a conversion by molar mass, not a printed value.

Consider `COc1nc2ccc(Br)cc2cc1C(c1ccccc1)N(CCN(C)C)Cc1ccccc1` (centres unmarked) [Compound 21], for which the “M. smegmatis pIC50” value in assay [1] is recorded as 5.8. Moreover, the “IC90 (μg/ml) EFA 14506” value in assay [2] amounted to 10.1 µg/mL (≈ 20 µM). Further, the “IC90 (μg/ml) ECO 25922” value in assay [3] amounted to 12.7 µg/mL (≈ 25.2 µM). In addition, the “IC90 (μg/ml) EFA 29212” value in assay [4] worked out at 12.7 µg/mL (≈ 25.2 µM). Moreover, in assay [5], the “IC90 (μg/ml) SMU 33402” value was found to be 10.1 µg/mL (≈ 20 µM). Also, the “IC90 (μg/ml) SPN 6305” value in [6] was 12.7 µg/mL (≈ 25.2 µM). In addition, the “M. tuberculosis pIC50” value in [7] was 5.1. Further, in assay [8], the “IC90 (μg/ml) SPY 8668” value was determined as 10.1 µg/mL (≈ 20 µM). For the same compound, the “IC90 (μg/ml) STA 25923” value in assay [9] is 11.3 µg/mL (≈ 22.4 µM). The “IC90 (μg/ml) LMO 49594” value in assay [10] is 12.7 µg/mL (≈ 25.2 µM). In [11], the “IC90 (μg/ml) PAE 27853” value stood at 12.7 µg/mL (≈ 25.2 µM). The “IC90 (μg/ml) STA 29213” value in [12] was determined as 10.1 µg/mL (≈ 20 µM). For the same compound, the “IC90 (μg/ml) BSU 43639” value in [13] is 10.1 µg/mL (≈ 20 µM).

For `CN(C)CCN(Cc1ccccc1)C(c1ccccc1)c1cc2cc(Br)ccc2nc1-c1ccccc1` (centres unmarked) [Compound 51], the IC50 was 1 µM in assay [1] and 7.94 µM in assay [7] (Mycobacterium tuberculosis, 168 h, read-out: M. tuberculosis pIC50 (converted)). The IC90 in assay [2] (Enterococcus faecalis, read-out: IC90 (μg/ml) EFA 14506) was 11 µg/mL (≈ 20 µM); in assay [14], 12.3 µg/mL (≈ 22.3 µM); in assay [3], 13.8 µg/mL (≈ 25.1 µM); in assay [4] it was 13.8 µg/mL (≈ 25.1 µM); in assay [5] it was 6.9 µg/mL (≈ 12.5 µM); in assay [6] (Streptococcus pneumoniae, read-out: IC90 (μg/ml) SPN 6305), 2.8 µg/mL (≈ 5.09 µM). For the same compound, the IC90 amounted to 2.8 µg/mL (≈ 5.09 µM) in assay [8] (read-out: IC90 (μg/ml) SPY 8668); 12.3 µg/mL (≈ 22.3 µM) in [9]; 13.8 µg/mL (≈ 25.1 µM) in [10]; 11 µg/mL (≈ 20 µM) in [11] (Pseudomonas aeruginosa, read-out: IC90 (μg/ml) PAE 27853); 11 µg/mL (≈ 20 µM) in assay [12].

On to `Cc1ccc2nc(-c3ccccc3)c(C(c3ccccc3)N(CC(=O)N3CCN(C)CC3)Cc3ccccc3)cc2c1` (centres unmarked) [Compound 72], for which the IC90 in [15] was 11.1 µg/mL (≈ 20 µM); in [3] it was 55.5 µg/mL (≈ 100 µM); in assay [5], 13.9 µg/mL (≈ 25.1 µM); in [9], 11.1 µg/mL (≈ 20 µM); in [10] it was 11.1 µg/mL (≈ 20 µM); in [12], 11.1 µg/mL (≈ 20 µM). Besides, the IC90 in assay [13] (Bacillus subtilis, read-out: IC90 (μg/ml) BSU 43639) amounted to 8.8 µg/mL (≈ 15.9 µM). The IC50 in assay [1] was 1.58 µM.

As for `COc1nc2ccc(Br)cc2cc1C(c1ccccc1)N(CC(=O)N1CCN(C)CC1)Cc1cccc2ncccc12` (centres unmarked) [Compound 114], the IC90 in [15] was found to be 12.5 µg/mL (≈ 20 µM); in assay [3], 62.5 µg/mL (≈ 100 µM); in assay [4], 12.5 µg/mL (≈ 20 µM); in assay [5], 15.7 µg/mL (≈ 25.1 µM); in [10] it was 49.6 µg/mL (≈ 79.4 µM); in assay [12], 12.5 µg/mL (≈ 20 µM). Further, in assay [1], the IC50 is 20 µM.
